pEC50: −log10 of the molar value.

The values below come from paper PMC12824250 (Nature Communications, 2025).

Test [1] deals with rdMPXV^Δ96,158. The test is classed as cell-based.
For test [2], the system named is rdMPXV^Δ96,158. The experiment in a line: microbe, parasite or virus in culture. The test is classed as cell-based. The note with it: Monkeypox virus, 30 h.
In test [3] the test system is VACV. The note with it: cited from earlier work.
The subject of test [4] is VACV. The note with it: in vivo; cited from earlier work.

With `Nc1ccn(C[C@@H](CO)OCP(=O)(O)O)c(=O)n1` [Cidofovir], in the test on rdMPXV^Δ96,158 [1], the Gaussia luciferase activity entry is given as “reduced Gaussia luciferase activity” and the “mean fluorescence intensity of mGreen-positive cells” value is “showed decreased intensity”. In the test on rdMPXV^Δ96,158 [2], this compound showed a negative logarithm of the EC50 (pEC50) of 4.98.

With `Cc1cc(C(=O)NNC(=O)c2ccncc2)ccc1Cl` [IMCBH, N1-isonicotinoly-N2-3-methyl-4-chlorobenzoylhydrazine], in the test on VACV [3], the “cytopathic effect (CPE) inhibition” value is on record as “complete cytopathic effect (CPE) inhibition”. Moreover, the “protection from VACV infection” value in the test on VACV [4] is given as “failed to protect”.

The term pEC50 denotes −log10 of the EC50, conventionally taken in molar units.
